These results are taken from US10077209B2, “Glazing unit comprising a hydrophilic layer having an improved scratch resistance” (SAINT-GOBAIN GLASS FRANCE, priority 2013, dated 2018).

The structures appear in SMILES notation.

A short description of this data set: Solubility of bis-urea monomers in diacetone alcohol (DAA). It counts as physicochemical. The settings on record: solvent diacetone alcohol. The procedure:
Three bis-urea monomers were synthesized from toluene-2,4-diisocyanate (TDI) on the one hand, 6-amino-1-hexanol, 2-amino-1-butanol and 2-aminopropanol on the other hand, all purchased from Aldrich. The TDI was stored at 4° C. with the aim of preventing side reactions. The dichloromethane was obtained from VWR and distilled and dried before use. The table below indicates the No. assigned to each bis-urea in the rest of the example, the starting products for its synthesis, a schematic representation of its formula and its solubility in DAA.
Consider `Cc1ccc(NC(=O)NCC(C)O)cc1NC(=O)NCC(C)O` (stereo not drawn) [Bis-urea1], for which the “Solubility in DAA” value amounted to 8 % by wt.
The value for `Cc1ccc(NC(=O)NCCCCCCO)cc1NC(=O)NCCCCCCO` [Bis-urea4] was 7.5 % by wt.
In the case of `CCC(CO)NC(=O)Nc1ccc(C)c(NC(=O)NC(CC)CO)c1` (stereo not drawn) [Bis-urea5], the “Solubility in DAA” value is given as 2.4 % by wt.
